Values quoted from earlier work, collected in PMC4408534 (Journal of nuclear medicine : official publication, Society …, 2014).

Key:
[1] = tested on: human SSTR2-transfected cell membranes; conditions: ± SEM, ref [27]
[2] = tested on: rat SSTR2 expressed in AR42J membranes; conditions: ref [28]

binding affinity, rat SSTR2 [2]: 0.21 to 0.23 nM
SMILES: C[C@@H](O)[C@H](NC(=O)[C@@H]1CSSC[C@H](NC(=O)[C@@H](Cc2ccccc2)NC(=O)CN2CCN(CC(=O)[O-])CCN(CC(=O)[O-])CCN(CC(=O)[O-])CC2)C(=O)N[C@@H](Cc2ccc(O)cc2)C(=O)N[C@H](Cc2c[nH]c3ccccc23)C(=O)N[C@@H](CCCCN)C(=O)N[C@@H]([C@@H](C)O)C(=O)N1)C(=O)O.[177Lu+3] [177-Lu-Dotatate, Lu-177-Tyr3-octreotate]
binding affinity, human SSTR2 [1]: 1.5 ± 0.4 nM
